Patent US20260098053A1, “COMPOSITIONS AND METHODS FOR TREATING CNS DISORDERS” (SAGE THERAPEUTICS, INC., priority 2019, published 2026)

Target: [35S]-TBPS binding, rat brain cortical membranes
Assay: Steroid inhibition of [35S]-TBPS binding
Conditions: Table 4, 3 nM [35S]-TBPS, in the presence of 5 mM GABA, read-out: TBPS IC50
Experimental: [35S]-t-Butylbicyclophosphorothionate (TBPS) binding assays using rat brain cortical membranes in the presence of 5 mM GABA has been described (Gee et al, J. Pharmacol. Exp. Ther. 1987, 241, 346-353; Hawkinson et al, Mol. Pharmacol. 1994, 46, 977-985; Lewin, A. H et al., Mol. Pharmacol. 1989, 35, 189-194).
Briefly, cortices are rapidly removed following decapitation of carbon dioxide-anesthetized Sprague-Dawley rats (200-250 g). The cortices are homogenized in 10 volumes of ice-cold 0.32 M sucrose using a glass/teflon homogenizer and centrifuged at 1500×g for 10 min at 4° C. The resultant supernatants are centrifuged at 10,000×g for 20 min at 4° C. to obtain the P2 pellets. The P2 pellets are resuspended in 200 mM NaCl/50 mM Na—K phosphate pH 7.4 buffer and centrifuged at 10,000×g for 10 min at 4° C. This washing procedure is repeated twice and the pellets are resuspended in 10 volumes of buffer. Aliquots ([…]) of the membrane suspensions are incubated with 3 nM [^35S]-TBPS and […] aliquots of test drug dissolved in dimethyl sulfoxide (DMSO) (final 0.5%) in the presence of 5 mM GABA. The incubation is brought to a final volume of 1.0 mL with buffer. Nonspecific binding is determined in the presence of […] and ranged from 15 to 25%. Following a 90 min incubation at room temp, the assays are terminated by filtration through glass fiber filters (Schleicher and Schuell No. 32) using a cell harvester (Brandel) and rinsed three times with ice-cold buffer. Filter bound radioactivity is measured by liquid scintillation spectrometry. Non-linear curve fitting of the overall data for each drug averaged for each concentration is done using Prism (GraphPad). […] The concentration of test compound producing 50% inhibition (IC50) of specific binding and the maximal extent of inhibition (Imax) are determined for the individual experiments with the same model used for the overall data and then the means±SEM.s of the individual experiments are calculated.
Various compounds are or can be screened to determine their potential as modulators of [^35S]-TBPS binding in vitro. These assays are or can be performed in accordance with the above

Structure (SMILES) | IC50
C[C@]1(O)CC[C@H]2CC[C@@H]3[C@H](CC[C@]4(C)[C@@H](C(=O)Cn5cc(C#N)cn5)CCC[C@@H]34)[C@@]2(C)CC1 [Example 52, 1-(2-((1S,4aS,4bR,6aR,9S,11aS,11bS,13aS)-9-hydroxy-9,11a,13a-trimethyloctadecahydro-1H-cyclohepta[a]phenanthren-1-yl)-2-oxoethyl)-1H-pyrazole-4-carbonitrile] | 100 to 1000 nM
CC(=O)[C@H]1CCC[C@H]2[C@@H]3CC[C@@H]4CC[C@](C)(O)CC[C@]4(C)[C@H]3CC[C@]12C [Example 53, 1-((1S,4aS,4bR,6aR,9S,11aS,11bS,13aS)-9-hydroxy-9,11a,13a-trimethyloctadecahydro-1H-cyclohepta[a]phenanthren-1-yl)ethanone] | > 1000 nM
C[C@]1(O)CC[C@@H]2CC[C@@H]3[C@H](CC[C@]4(C)[C@@H](C(=O)CCn5cc(C#N)cn5)CCC[C@@H]34)[C@@]2(C)CC1 [Example 54, 1-(3-((1S,4aS,4bR,6aS,9S,11aS,11bS,13aS)-9-hydroxy-9,11a,13a-trimethyloctadecahydro-1H-cyclohepta[a]phenanthren-1-yl)-3-oxopropyl)-1H-pyrazole-4-carbonitrile] | 100 to 1000 nM
COC[C@]1(O)CC[C@H]2CC[C@@H]3[C@H](CC[C@]4(C)[C@@H](C(=O)Cn5cc(C#N)cn5)CCC[C@@H]34)[C@@]2(C)CC1 [Example 55, 1-(2-((1S,4aS,4bR,6aR,9S,11aS,11bS,13aS)-9-hydroxy-9-(methoxymethyl)-11a,13a-dimethyloctadecahydro-1H-cyclohepta[a]phenanthren-1-yl)-2-oxoethyl)-1H-pyrazole-4-carbonitrile] | 100 to 1000 nM
COC[C@]1(O)CC[C@@H]2CC[C@@H]3[C@H](CC[C@]4(C)[C@@H](C(=O)Cn5cc(C#N)cn5)CCC[C@@H]34)[C@@]2(C)CC1 [Example 56, 1-(2-((1S,4aS,4bR,6aS,9S,11aS,11bS,13aS)-9-hydroxy-9-(methoxymethyl)-11a,13a-dimethyloctadecahydro-1H-cyclohepta[a]phenanthren-1-yl)-2-oxoethyl)-1H-pyrazole-4-carbonitrile] | 100 to 1000 nM
CC(=O)[C@H]1CCC[C@H]2[C@@H]3CC=C4CC[C@](C)(O)CC[C@]4(C)[C@H]3CC[C@]12C [Example 57, 1-((1S,4aS,4bS,9S,11aR,11bS,13aS)-9-hydroxy-9,11a,13a-trimethyl-2,3,4,4a,4b,5,7,8,9,10,11,11a,11b,12,13,13a-hexadecahydro-1H-cyclohepta[a]phenanthren-1-yl)ethanone] | < 100 nM
C[C@]1(O)CCC2=CC[C@H]3[C@@H]4CCC[C@H](C(=O)Cn5cc(C#N)cn5)[C@@]4(C)CC[C@@H]3[C@@]2(C)CC1 [Example 58, 1-(2-((1S,4aS,4bS,9S,11aR,11bS,13aS)-9-hydroxy-9,11a,13a-trimethyl-2,3,4,4a,4b,5,7,8,9,10,11,11a,11b,12,13,13a-hexadecahydro-1H-cyclohepta[a]phenanthren-1-yl)-2-oxoethyl)-1H-pyrazole-4-carbonitrile] | < 100 nM
CC(=O)[C@H]1CCCC[C@H]2[C@@H]3CC[C@@H]4C[C@](C)(O)CCC[C@]4(C)[C@H]3CC[C@]12C [Example 59, 1-((1S,5aS,5bR,7aR,9R,12aS,12bS,14aS)-9-hydroxy-9,12a,14a-trimethylicosahydrodicyclohepta[a,f]naphthalen-1-yl)ethanone] | 100 to 1000 nM
C[C@@]1(O)CCC[C@@]2(C)[C@H](CC[C@@H]3[C@@H]2CC[C@]2(C)[C@@H](C(=O)Cn4cc(C#N)cn4)CCCC[C@@H]32)C1 [Example 60] | < 100 nM
C[C@@]1(O)CCC[C@@]2(C)[C@H](CC[C@@H]3[C@@H]2CC[C@]2(C)[C@H](C(=O)Cn4cc(C#N)cn4)CCCC[C@@H]32)C1 [Example 61, 1-(2-((1R,5aS,5bR,7aR,9R,12aS,12bS,14aS)-9-hydroxy-9,12a,14a-trimethylicosahydrodicyclohepta[a,f]naphthalen-1-yl)-2-oxoethyl)-1H-pyrazole-4-carbonitrile] | 100 to 1000 nM
